Test: in vitro
Settings: human, hela cells, % viability

With `CN(C)C(=S)Oc1ccc2[nH]c3c(c2c1)CCNC31CCN(CCOc2ccccc2)C1` (stereo not drawn) [CBK105748] as the compound, how does the viability at 28.5 h, 10 µM read?
Its viability at 28.5 h, 10 µM is 74.8%.

Which viability at 28.5 h, 10 µM does the source give for `Cc1ccccc1NC(=O)NCc1ccccc1` [CBK105833] here?
The viability at 28.5 h, 10 µM was 86.8%.

For `CNC(=O)c1nn(CCCc2ccc(OC)cc2)c2ccccc12` [CBK105842], which viability at 28.5 h, 10 µM is on record?
The viability at 28.5 h, 10 µM was 109%.

With `COCCNc1nc(-c2ccc3c(c2)OCO3)ccc1C(=O)N(C)CCN(C)C` [CBK105915] as the compound, how does the viability at 28.5 h, 10 µM read?
The viability at 28.5 h, 10 µM was 103%.

Which viability at 28.5 h, 10 µM does the source give for `COCCNc1nc(-c2cccc(Cl)c2Cl)ccc1C(=O)N(C)CCN(C)C` [CBK105922] here?
Its viability at 28.5 h, 10 µM is 98.3%.

With `COCCNc1nc(-c2ccc3[nH]ccc3c2)ccc1C(=O)N1CCN(C)CC1` [CBK105956] as the compound, how does the viability at 28.5 h, 10 µM read?
The viability at 28.5 h, 10 µM was 92.2%.

With `COCCNc1nc(-c2cc(C(C)C)ccc2OC)ccc1C(=O)NCCNC(C)=O` [CBK105985] as the compound, how does the viability at 28.5 h, 10 µM read?
The viability at 28.5 h, 10 µM was 96.6%.

With `CNC(=O)c1ccc(-c2ccc(C)c(C)c2)nc1NCCOC` [CBK105999] as the compound, how does the viability at 28.5 h, 10 µM read?
The viability at 28.5 h, 10 µM was 96.6%.

For `CNC(=O)c1ccc(-c2cccc(OC(F)(F)F)c2)nc1NCCOC` [CBK106000], which viability at 28.5 h, 10 µM is on record?
Its viability at 28.5 h, 10 µM is 96.4%.

Which viability at 28.5 h, 10 µM does the source give for `CNC(=O)c1ccc(-c2ccccc2C)nc1NCCOC` [CBK106007] here?
The viability at 28.5 h, 10 µM was 99.7%.

With `COCCNC(=O)c1ccc(-c2ccc(OC)cc2)nc1N1CCN(C(=O)c2ccco2)CC1` [CBK106010] as the compound, how does the viability at 28.5 h, 10 µM read?
Its viability at 28.5 h, 10 µM is 88.1%.

With `CC(=O)Nc1cccc(-c2ccc(C(=O)NCc3ccc(F)cc3)c(N3CCN(C(=O)c4ccco4)CC3)n2)c1` [CBK106012] as the compound, how does the viability at 28.5 h, 10 µM read?
The viability at 28.5 h, 10 µM was 85.5%.

Which viability at 28.5 h, 10 µM does the source give for `COc1cccc(-c2ccc(C(=O)NCc3ccccc3SC)c(N3CCN(C(=O)c4ccco4)CC3)n2)c1` [CBK106025] here?
The viability at 28.5 h, 10 µM was 94.3%.

With `COc1cccc(NC(=O)c2ccc(-c3cc(C(F)(F)F)cc(C(F)(F)F)c3)nc2N(C)C)c1` [CBK106028] as the compound, how does the viability at 28.5 h, 10 µM read?
Its viability at 28.5 h, 10 µM is 119%.

With `COCCNC(=O)c1ccc(-c2cccc(Cl)c2Cl)nc1N(C)C` [CBK106057] as the compound, how does the viability at 28.5 h, 10 µM read?
Its viability at 28.5 h, 10 µM is 89.4%.

With `CN(C)CCN(C)C(=O)c1ccc(-c2ccccc2)nc1N(C)C` [CBK106070] as the compound, how does the viability at 28.5 h, 10 µM read?
Its viability at 28.5 h, 10 µM is 88.1%.

Which viability at 28.5 h, 10 µM does the source give for `CC(=O)c1ccc(-c2ccc(C(=O)N(C)CCN(C)C)c(N(C)C)n2)s1` [CBK106071] here?
Its viability at 28.5 h, 10 µM is 85.6%.

For `CN(C)CCN(C)C(=O)c1ccc(-c2ccc3c(c2)OCO3)nc1N(C)C` [CBK106072], which viability at 28.5 h, 10 µM is on record?
Its viability at 28.5 h, 10 µM is 92.7%.

For `CN(C)CCN(C)C(=O)c1ccc(-c2cccc(N(C)C)c2)nc1N(C)C` [CBK106077], which viability at 28.5 h, 10 µM is on record?
Its viability at 28.5 h, 10 µM is 89.6%.

With `CN(C)CCN(C)C(=O)c1ccc(-c2cccc(OC(F)(F)F)c2)nc1N(C)C` [CBK106081] as the compound, how does the viability at 28.5 h, 10 µM read?
Its viability at 28.5 h, 10 µM is 90.3%.

With `Cc1csc(-c2ccc(C(=O)N(C)CCN(C)C)c(N(C)C)n2)c1` [CBK106088] as the compound, how does the viability at 28.5 h, 10 µM read?
Its viability at 28.5 h, 10 µM is 94.1%.

With `COCc1cccc(-c2ccc(C(=O)N(C)CCN(C)C)c(N(C)C)n2)c1` [CBK106091] as the compound, how does the viability at 28.5 h, 10 µM read?
The viability at 28.5 h, 10 µM was 103%.

For `CN1CCN(C(=O)c2ccc(-c3ccc(N4CCOCC4)cc3)nc2N(C)C)CC1` [CBK106114], which viability at 28.5 h, 10 µM is on record?
Its viability at 28.5 h, 10 µM is 90%.

Which viability at 28.5 h, 10 µM does the source give for `CN1CCN(C(=O)c2ccc(-c3ccccc3)nc2N(C)C)CC1` [CBK106115] here?
Its viability at 28.5 h, 10 µM is 84.4%.

For `CNC(=O)c1ccc(-c2ccc3[nH]ccc3c2)nc1N(C)C` [CBK106146], which viability at 28.5 h, 10 µM is on record?
The viability at 28.5 h, 10 µM was 90.9%.

Which viability at 28.5 h, 10 µM does the source give for `CNC(=O)c1ccc(-c2cc(C)cs2)nc1N(C)C` [CBK106150] here?
The viability at 28.5 h, 10 µM was 86.8%.

Which viability at 28.5 h, 10 µM does the source give for `CC(=O)c1ccc(-c2ccc(C(=O)N3CCN(C)CC3)c(N3CCOCC3)n2)s1` [CBK106181] here?
Its viability at 28.5 h, 10 µM is 96.3%.

With `Cc1ccc(C(=O)NCc2nc3ccccc3[nH]2)c(N2CCOCC2)n1` [CBK106200] as the compound, how does the viability at 28.5 h, 10 µM read?
The viability at 28.5 h, 10 µM was 88.4%.

Which viability at 28.5 h, 10 µM does the source give for `Cc1ccc(C(=O)NCCN2CCOCC2)c(N2CCOCC2)n1` [CBK106201] here?
Its viability at 28.5 h, 10 µM is 87%.

For `Cc1ccc(C(=O)NCc2ccc3c(c2)CCO3)c(N2CCOCC2)n1` [CBK106202], which viability at 28.5 h, 10 µM is on record?
The viability at 28.5 h, 10 µM was 88.8%.

With `CNC(=O)c1ccc(-c2ccccc2OC)nc1N1CCOCC1` [CBK106210] as the compound, how does the viability at 28.5 h, 10 µM read?
Its viability at 28.5 h, 10 µM is 87.4%.

For `CNC(=O)c1cccc(NC(=O)c2ccc(C)nc2N2CCOCC2)c1` [CBK106223], which viability at 28.5 h, 10 µM is on record?
The viability at 28.5 h, 10 µM was 95.1%.

Which viability at 28.5 h, 10 µM does the source give for `CSc1ccccc1CNC(=O)c1ccc(C)nc1N1CCOCC1` [CBK106224] here?
Its viability at 28.5 h, 10 µM is 91.9%.

For `COCCNC(=O)c1ccc(-c2cc(C(C)C)ccc2OC)nc1NCC1CC1` [CBK106256], which viability at 28.5 h, 10 µM is on record?
Its viability at 28.5 h, 10 µM is 94.1%.

With `Cc1csc(-c2ccc(C(=O)N(C)CCN(C)C)c(NCC3CC3)n2)c1` [CBK106279] as the compound, how does the viability at 28.5 h, 10 µM read?
Its viability at 28.5 h, 10 µM is 84.2%.

Which viability at 28.5 h, 10 µM does the source give for `CNC(=O)c1ccc(-c2ccc(N3CCOCC3)cc2)nc1NCC1CC1` [CBK106305] here?
The viability at 28.5 h, 10 µM was 102%.

With `CNC(=O)c1ccc(-c2cc(OC)c(OC)c(OC)c2)nc1NCC1CC1` [CBK106312] as the compound, how does the viability at 28.5 h, 10 µM read?
The viability at 28.5 h, 10 µM was 101%.

For `CNC(=O)c1ccc(-c2cccc(COC)c2)nc1NCC1CC1` [CBK106322], which viability at 28.5 h, 10 µM is on record?
Its viability at 28.5 h, 10 µM is 90.7%.

For `COCCNC(=O)c1ccc(-c2ccccc2C)nc1NC(C)=O` [CBK106325], which viability at 28.5 h, 10 µM is on record?
Its viability at 28.5 h, 10 µM is 109%.

For `CC(=O)N(C)c1nc(-c2ccccc2C)ccc1C(=O)NC1CCCCC1` [CBK106333], which viability at 28.5 h, 10 µM is on record?
Its viability at 28.5 h, 10 µM is 96.9%.

Which viability at 28.5 h, 10 µM does the source give for `CC(=O)N(C)c1nc(-c2ccccc2C)ccc1C(=O)N(C)C` [CBK106350] here?
Its viability at 28.5 h, 10 µM is 89%.

For `O=C(NCc1nc2ccccc2[nH]1)c1cc(-c2ccc(Cl)cc2)cnc1NCc1ccc2c(c1)OCO2` [CBK106377], which viability at 28.5 h, 10 µM is on record?
The viability at 28.5 h, 10 µM was 102%.

Which viability at 28.5 h, 10 µM does the source give for `O=C(NCc1ccco1)c1cc(-c2ccc3[nH]ccc3c2)cnc1NCCOc1ccccc1` [CBK106388] here?
Its viability at 28.5 h, 10 µM is 89.9%.

With `CNC(=O)c1cccc(NC(=O)c2cc(-c3ccc(O)cc3)cnc2N(C)C)c1` [CBK106397] as the compound, how does the viability at 28.5 h, 10 µM read?
Its viability at 28.5 h, 10 µM is 89.6%.

For `O=C(O)c1cccc(-c2cnc(NCC3CC3)c(C(=O)NCC(F)(F)F)c2)c1` [CBK106420], which viability at 28.5 h, 10 µM is on record?
The viability at 28.5 h, 10 µM was 117%.

For `Cc1ccccc1-c1cnc(NS(C)(=O)=O)c(C(=O)N(C)C)c1` [CBK106430], which viability at 28.5 h, 10 µM is on record?
The viability at 28.5 h, 10 µM was 103%.

Which viability at 28.5 h, 10 µM does the source give for `O=C1CCC(=O)N1CCn1c(=O)n(S(=O)(=O)c2cccc(Cl)c2)c2ccccc21` [CBK106493] here?
Its viability at 28.5 h, 10 µM is 93.1%.

With `CCCS(=O)(=O)n1c(=O)n(CC(=O)c2ccccc2OC)c2ccccc21` [CBK106498] as the compound, how does the viability at 28.5 h, 10 µM read?
The viability at 28.5 h, 10 µM was 93.1%.

Which viability at 28.5 h, 10 µM does the source give for `CCN(CC)c1ccc(C(=O)Cn2c(=O)n(C(=O)CCCc3ccc(OC)cc3)c3ccccc32)cc1` [CBK106503] here?
The viability at 28.5 h, 10 µM was 89.6%.

Which viability at 28.5 h, 10 µM does the source give for `CCN(CC)c1ccc(C(=O)Cn2c(=O)n(S(=O)(=O)c3ccc4ccccc4c3)c3ccccc32)cc1` [CBK106505] here?
The viability at 28.5 h, 10 µM was 88.9%.

With `COC(=O)c1ccccc1S(=O)(=O)n1c(=O)n(CCc2c[nH]c3ccccc23)c2ccccc21` [CBK106509] as the compound, how does the viability at 28.5 h, 10 µM read?
Its viability at 28.5 h, 10 µM is 87.2%.

For `CC(C)c1ccc(S(=O)(=O)n2c(=O)n(CCc3c[nH]c4ccccc34)c3ccccc32)cc1` [CBK106518], which viability at 28.5 h, 10 µM is on record?
Its viability at 28.5 h, 10 µM is 87.4%.

Which viability at 28.5 h, 10 µM does the source give for `CS(=O)(=O)c1cccc(C(=O)n2c(=O)n(CC3CCCCC3)c3ccccc32)c1` [CBK106520] here?
The viability at 28.5 h, 10 µM was 103%.

Which viability at 28.5 h, 10 µM does the source give for `COC(=O)CCCC(=O)n1c(=O)n(CC2CCCCC2)c2ccccc21` [CBK106524] here?
The viability at 28.5 h, 10 µM was 112%.

For `O=c1n(CC2CCCCC2)c2ccccc2n1S(=O)(=O)c1ccc2ccccc2c1` [CBK106527], which viability at 28.5 h, 10 µM is on record?
Its viability at 28.5 h, 10 µM is 92.5%.

With `CS(=O)(=O)c1ccc(Cn2c(=O)n(S(=O)(=O)c3ccccc3)c3ccccc32)cc1` [CBK106530] as the compound, how does the viability at 28.5 h, 10 µM read?
The viability at 28.5 h, 10 µM was 95.1%.

With `CN(C)c1cccc2c(S(=O)(=O)n3c(=O)n(Cc4ccc(S(C)(=O)=O)cc4)c4ccccc43)cccc12` [CBK106535] as the compound, how does the viability at 28.5 h, 10 µM read?
The viability at 28.5 h, 10 µM was 103%.

Same assay, conditions: human, hela cells, % viability, bulk resorufin, single well

With `Fc1ccc(OCCOc2ccccc2-c2ccc3c(c2)COC2(CCNCC2)O3)cc1` [CBK105745] as the compound, how does the viability at 28.5 h, 10 µM read?
Its viability at 28.5 h, 10 µM is 88.7%.

Which viability at 28.5 h, 10 µM does the source give for `COc1ccc2[nH]cc(CC(=O)Nc3cccc(-c4ccc5c(c4)COC4(CCNCC4)O5)c3)c2c1` [CBK105859] here?
Its viability at 28.5 h, 10 µM is 78%.

Which viability at 28.5 h, 10 µM does the source give for `FC(F)(F)c1ccc(COc2cccc(-c3ccc4c(c3)COC3(CCNCC3)O4)c2)cc1` [CBK105868] here?
Its viability at 28.5 h, 10 µM is 83.7%.
